From PMC10686989, “Distinct activation mechanisms of β-arrestin-1 revealed by ^19F NMR spectroscopy” (Nature Communications, 2023)

How the values were obtained:
βarr1-1-395 = assay: 1D 19F NMR of distal CT-deleted construct; format: biochemical, human; conditions: H295C site; PIP2
From the text: (§1) The cysteine-less mutant (C59V/C125S/C140L/C150V/C242V/C251V/C269S) of the long splice variant of human βarr1 was used for introduction of single site cysteine mutation for ^19F labeling. The sequence was codon-optimized for expression in Escherichia coli and cloned into a pET-28a(+) vector (Novagen), with an N-terminal 6xHis-tag, followed by an SSG linker and a thrombin cleavage site. All mutants, including the 1–382 (βarr1-ΔCT) and 1–395 truncation constructs, were generated using site-directed mutagenesis kits (Thermo Fisher). Primer sequences for generating the mutants are listed in Supplementary Table 4.
(§2) The ^19F-labeled βarr1 was diluted to 50 μM using buffer E before incubation with peptides or PIP2. The V2Rpp, β2AR-GRK2pp/GRK6pp or PIP2 were added at 1.2-fold, 3-fold, and 1.5-fold molar ratio excess to the protein, respectively. […]
(§3) All ^19F NMR spectra were recorded at 298 K using a Bruker AVANCE III HD 800 MHz spectrometer equipped with a ^1H-^19F/^13C/^15N TCI triple resonance cryogenic probe. […] The carrier frequency was set to −68.0 ppm and the spectra were recorded with 4k points and a spectral width of 15,000 Hz. […]
All NMR data were analyzed using the MestraNova 12.0.0 software (https://mnova.pl). […] Peak intensities, integrated peak area and linewidths were determined based on the fitted results.

[1] = test system: βarr1-ΔCT (residues 1–382); assay: 19F NMR (1D and CEST) of CT-truncated construct; format: biochemical, human; conditions: E206C site; PIP2 added to pre-activated ΔCT state
From the text: as §1, §2, §3
All NMR data were analyzed using the MestraNova 12.0.0 software (https://mnova.pl). […] Peak intensities, integrated peak area and linewidths were determined based on the fitted results. […]

βarr1 = target: T1, βarr1 (Homo sapiens, UniProt P49407, C125S/C140L/C150V/C242V/C251V/C269S/C59V/D390C); assay: 1D 19F NMR of site-specifically 19F (wPSP-6F)-labeled βarr1; format: biochemical; conditions: for Linewidth: 298 K, pH 8.0
T1 construct: we started from a full-length functional cysteine-less βarr1 construct[20]; 6xHis-tag with SSG linker and thrombin cleavage site (N, cleaved yes); made in house; host or cells: E. coli BL21(DE3)
T1 sequence (P49407 whole entry C59V/C125S/C140L/C150V/C242V/C251V/C269S/D390C): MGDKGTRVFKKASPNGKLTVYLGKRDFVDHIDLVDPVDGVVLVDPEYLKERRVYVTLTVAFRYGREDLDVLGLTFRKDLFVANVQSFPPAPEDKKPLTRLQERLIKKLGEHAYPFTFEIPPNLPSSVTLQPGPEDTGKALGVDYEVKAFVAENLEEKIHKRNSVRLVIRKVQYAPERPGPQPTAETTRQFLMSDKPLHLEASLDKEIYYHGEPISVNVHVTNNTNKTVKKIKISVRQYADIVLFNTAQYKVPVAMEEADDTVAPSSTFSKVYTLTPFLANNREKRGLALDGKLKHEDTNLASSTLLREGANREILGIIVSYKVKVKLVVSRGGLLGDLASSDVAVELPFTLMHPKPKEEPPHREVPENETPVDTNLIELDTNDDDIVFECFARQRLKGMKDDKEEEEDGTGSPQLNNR
From the text: as §1
Each single-cysteine mutant of βarr1 was diluted to a concentration of 50 μM to be labeled using the sulfoxide-based ^19F probe wPSP-6F[21],[44]. The wPSP-6F stock dissolved in buffer E was added into the protein sample at 1.5-fold molar ratio excess and incubated at 4 °C for 1 h, followed by quenching with twofold molar ratio of dithiothreitol. The sample was then fully exchanged using buffer E to remove excess of small molecules, and subjected to a second round of SEC purification. The purified proteins were concentrated to 100 μM, flash-frozen in liquid nitrogen and stored at −80 °C until use. The purities of all samples were verified by SDS-PAGE.
The ^19F-labeled βarr1 was diluted to 50 μM using buffer E before incubation with peptides or PIP2. The V2Rpp, β2AR-GRK2pp/GRK6pp or PIP2 were added at 1.2-fold, 3-fold, and 1.5-fold molar ratio excess to the protein, respectively. For the membrane-bound sample, the reconstituted nanodiscs were added at twofold molar ratio of βarr1. All complexes were incubated at 25 °C for 1 h, and the freshly prepared samples were immediately subjected to ^19F NMR experiments.
NMR samples were prepared in buffer E to a final volume of 140 μL, supplemented with 1 mM DTT, 10% D2O for field lock, and 1 μM sodium trifluoroacetate (STFA) as the internal chemical shift reference. All samples were sterile-filtered and loaded into sterile 3 mm NMR microtubes to prevent microbial contamination. Final protein concentrations vary for different constructs, depending on their expression levels and stabilities, but all in the range of 20–50 μM.
All ^19F NMR spectra were recorded at 298 K using a Bruker AVANCE III HD 800 MHz spectrometer equipped with a ^1H-^19F/^13C/^15N TCI triple resonance cryogenic probe. All data were acquired and processed using the Bruker Topspin 4.2.0 software. For all 1D ^19F NMR experiments, the traditional one-pulse sequence was used. The carrier frequency was set to −68.0 ppm and the spectra were recorded with 4k points and a spectral width of 15,000 Hz. Because accurate calibration of the 90° excitation pulse length for individual samples is not practical due to the low protein concentrations, we used the 90° pulse length calibrated from a standard sample (0.05% Trifluoro-toluene in CDCl3) for all βarr1 samples. […] Therefore, all the ^19F experiments were conducted with a 100 ms relaxation delay, and acquired using 100,000–200,000 scans depending on the sample condition, yielding a signal-to-noise (S/N) ratio of approximately 50. SDS-PAGE were run for all samples before and after NMR experiments to ensure that no protein degradation occurs during the experiments.
All NMR data were analyzed using the MestraNova 12.0.0 software (https://mnova.pl). The spectra were baseline-corrected by the Whittaker Smoother method and applied with a 30 Hz exponential windows function. The ^19F chemical shifts were referenced to STFA at −75.450 ppm. All datasets were processed using the same variables to facilitate comparison. Spectral deconvolutions were performed assuming generalized Lorentzian line shapes. To distinguish overlapping resonances, a LB value of 3 Hz was initially applied to ensure the highest resolution and determine the exact chemical shift values. The spectra were subsequently fitted iteratively using an LB value of 30 Hz. […]

## CCCCCCCC(=O)OC[C@H](COP(=O)(O)O[C@@H]1[C@H](O)[C@H](O)[C@@H](OP(=O)(O)O)[C@H](OP(=O)(O)O)[C@H]1O)OC(=O)CCCCCCC [PIP2, diC8-PI(4,5)P2]
βarr1-1-395
  Transition to S2 state: promotes the S2 conformation to an extent comparable with full-length βarr1
[1]
  Active S2 conformation: increases the active S2 conformation
βarr1; 1T36 site, ligand-bound state (V2Rpp 1.2-fold, PIP2 1.5-fold), basal 107
  Linewidth: 102 Hz
βarr1; C242 site
  Linewidth increase upon PIP2 binding: ~ 50%
βarr1; C242 site, PIP2 1.5-fold, basal 80
  Linewidth: 120 Hz
βarr1; C269 site, PIP2 1.5-fold, basal 58
  Linewidth: 56 Hz
βarr1; D240C site
  Linewidth increase upon PIP2 binding: ~75%
βarr1; D240 site, PIP2 1.5-fold, basal 75
  Linewidth: 133 Hz
βarr1; D390C site, released conformation, V2Rpp 1.2-fold or PIP2 1.5-fold
  Linewidth of the S2 resonance: > 200 Hz
βarr1; D390C site, V2Rpp 1.2-fold, PIP2 1.5-fold
  CT displacement/release: very slight increase of the active S2 peak at the D390C site
βarr1; D390 site, ligand-bound state (V2Rpp 1.2-fold, PIP2 1.5-fold), basal 87
  Linewidth: 92 Hz
βarr1; E206C site
  Linewidth increase upon PIP2 binding: < 10%
βarr1; E206C site, PIP2 alone
  Spectral change at E206C: no obvious changes at this site
βarr1; E206 site, ligand-bound state (V2Rpp 1.2-fold, PIP2 1.5-fold), basal 120
  Linewidth: 129 Hz
βarr1; E283C site
  Linewidth increase upon PIP2 binding: < 10%
βarr1; E283 site, PIP2 1.5-fold, basal 99
  Linewidth: 106 Hz
βarr1; E313C site
  Linewidth increase upon PIP2 binding: ~ 50%
βarr1; E313 site, ligand-bound state (V2Rpp 1.2-fold, PIP2 1.5-fold), basal 88
  Linewidth: 136 Hz
βarr1; E404 site, ligand-bound state (V2Rpp 1.2-fold, PIP2 1.5-fold), basal 51
  Linewidth: 57 Hz
βarr1; F244 site, ligand-bound state (V2Rpp 1.2-fold, PIP2 1.5-fold), basal 123
  Linewidth: 200 Hz
βarr1; F277C site
  Linewidth increase upon PIP2 binding: < 10%
βarr1; F277 site, PIP2 1.5-fold, basal 68
  Linewidth: 68 Hz
βarr1; H198 site, PIP2 1.5-fold, basal 107
  Linewidth: 115 Hz
βarr1; H295C site, PIP2 alone, 1.5-fold
  S2 population: ~ 68%
βarr1; H295C site, PIP2 co-added with GRK2/6-phosphorylated β2AR peptides
  S2 population: ~ 55%
βarr1; H295C site, V2Rpp 1.2-fold, β2AR peptides 3-fold, PIP2 1.5-fold, nanodiscs twofold
  Gate loop conformational change (S2 state): dramatic, albeit incomplete transition to the S2 state
βarr1; H295 site, ligand-bound state (V2Rpp 1.2-fold, PIP2 1.5-fold), basal 230
  Linewidth: 362 Hz
βarr1; L68 site, ligand-bound state (V2Rpp 1.2-fold, PIP2 1.5-fold), basal 89
  Linewidth: 101 Hz
βarr1; L71 site, ligand-bound state (V2Rpp 1.2-fold, PIP2 1.5-fold), basal 62
  Linewidth: 73 Hz
βarr1; L100 site, ligand-bound state (V2Rpp 1.2-fold, PIP2 1.5-fold), basal 247
  Linewidth: 242 Hz
βarr1; L191 site, PIP2 1.5-fold, basal 58
  Linewidth: 75 Hz
βarr1; L293 site, ligand-bound state (V2Rpp 1.2-fold, PIP2 1.5-fold), basal 113
  Linewidth: 141 Hz
βarr1; L334 site, ligand-bound state (V2Rpp 1.2-fold, PIP2 1.5-fold), basal 50
  Linewidth: 87 Hz
βarr1; N375 site, ligand-bound state (V2Rpp 1.2-fold, PIP2 1.5-fold), basal 46
  Linewidth: 48 Hz
βarr1; T6 site, ligand-bound state (V2Rpp 1.2-fold, PIP2 1.5-fold), basal 71
  Linewidth: 70 Hz
βarr1; T183 site, ligand-bound state (V2Rpp 1.2-fold, PIP2 1.5-fold), basal 67
  Linewidth: 89 Hz
βarr1; Y63C site, PIP2 1.5-fold
  New peak: appearance of a new peak S3
βarr1; Y63C, L68C, L71C, T136C, F244C, V2Rpp 1.2-fold, β2AR peptides 3-fold, PIP2 1.5-fold
  Spectral changes in the central crest: apparently perturbs Y63C and F244C while having little effect on the other sites
βarr1; Y63 site, ligand-bound state (V2Rpp 1.2-fold, PIP2 1.5-fold), basal 118
  Linewidth: 206 Hz
